Read-outs that look alike come from different tables or passages of the source.
Experiments:
[1] = biological target: T1, human dopamine D3 receptor (Homo sapiens, UniProt P35462); assay: Radioligand binding assay, human dopamine D3 receptors ([3H]Spiperone)
T1 construct: expressed in transfected cells; host or cells: CHO
Experimental: The assay for binding to human D3 receptors was conducted according to Sokoloff, P. et al. Nature 1990, 347, 146.
CHO cells stably transfected with a plasmid encoding the human dopamine D3 receptor were used to prepare membranes in modified Tris-HCl pH 7.4 buffer using standard techniques. […] Non-specific binding was estimated in the presence of 25 μM S-(−)-sulpiride. […] See Sokoloff, P. et al. “Molecular cloning and characterization of a novel dopamine receptor (D3) as a target for neuroleptics” Nature 347: 146–151, 1990.
(§1) The human 5-HT2a and 5-HT2b screens were conducted according to Bonhaus, D. W. et al. Br. J. Pharmacol. 1995, 115, 622. The human […], W. A. et al. J. Neurochem. 1997, 69, 1449. The human 5-HT6 screen was conducted according to Monsama, F. J. et al. Mol. Pharmacol. 1993, 43, 320. The assay to human D3 receptors was conducted according to Sokoloff, P. et al. Nature 1990, 347;146. The human dopamine transporter assay was conducted according to Gu, H. et. al. J. Biol. Chem. 1994, 269 (10);7124; and Giros, B. et al. Trends. Pharmacol. Sci. 1993, 14: 43. The human muscarinic M1–M4 screens were conducted according to Buckley N. J. et al. Mol. Pharmacol. 1989, 35:469.

[2] = biological target: T2, human serotonin 5-HT6 receptor (Homo sapiens, UniProt P50406); assay: Radioligand binding assay, human 5-HT6 receptors ([3H]LSD); details: read-out: IC50 (nM) 5-HT6
T2 construct: expressed in transfected cells; host or cells: HeLa/E6-7
T2 sequence (P50406 whole entry): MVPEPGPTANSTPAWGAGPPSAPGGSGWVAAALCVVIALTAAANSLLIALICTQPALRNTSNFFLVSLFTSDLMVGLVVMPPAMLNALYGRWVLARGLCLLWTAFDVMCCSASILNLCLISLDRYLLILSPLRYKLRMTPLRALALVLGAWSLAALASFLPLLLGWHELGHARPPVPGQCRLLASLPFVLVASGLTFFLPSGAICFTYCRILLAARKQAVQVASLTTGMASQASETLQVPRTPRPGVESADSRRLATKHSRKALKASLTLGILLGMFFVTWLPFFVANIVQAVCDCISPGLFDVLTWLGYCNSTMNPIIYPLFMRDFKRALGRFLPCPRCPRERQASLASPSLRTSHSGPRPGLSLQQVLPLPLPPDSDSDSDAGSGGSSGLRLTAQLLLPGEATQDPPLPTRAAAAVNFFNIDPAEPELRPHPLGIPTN
Experimental: (§2) The human 5-HT2a and 5-HT2b screens were conducted according to Bonhaus, D. W. et al. Br. J. Pharmacol. 1995, 115, 622. The human 5-HT2c screen was conducted according to Wolf, W. A. et al. J. Neurochem. 1997, 69, 1449. The human 5-HT6 screen was conducted according to Monsma, F. J. et al. Mol. Pharmacol. 1993, 43, 320.
This assay measures binding of [^3H]LSD (lysergic acid diethylamide) to human serotonin 5-HT6 receptors. HeLa/E6–7 cells stably transfected with a plasmid encoding the human serotonin 5-HT6 receptor were used to prepare membranes in modified Tris-HCl pH 7.4 buffer using standard techniques. A 30 μg aliquot of membrane was incubated with 1.5 nM [^3H]LSD for 120 minutes at 37° C. Non-specific binding was estimated in the presence of 5 μM 5-HT. Membranes were filtered and washed 3 times and the filters were counted to determine [^3H]LSD specifically bound. See Monsma, Jr., F. J. et al. “Cloning and expression of a novel serotonin receptor with high affinity for tricyclic psychotropic drugs” Mol. Pharmacol. 43: 320–327, 1993.
as §1

[3] = biological target: T3, human serotonin 5-HT2A receptor (Homo sapiens, UniProt P28223); assay: Radioligand binding assay, human 5-HT2A receptors ([3H]Ketanserin)
T3 construct: expressed in transfected cells; host or cells: CHO-K1
T3 sequence (P28223 whole entry): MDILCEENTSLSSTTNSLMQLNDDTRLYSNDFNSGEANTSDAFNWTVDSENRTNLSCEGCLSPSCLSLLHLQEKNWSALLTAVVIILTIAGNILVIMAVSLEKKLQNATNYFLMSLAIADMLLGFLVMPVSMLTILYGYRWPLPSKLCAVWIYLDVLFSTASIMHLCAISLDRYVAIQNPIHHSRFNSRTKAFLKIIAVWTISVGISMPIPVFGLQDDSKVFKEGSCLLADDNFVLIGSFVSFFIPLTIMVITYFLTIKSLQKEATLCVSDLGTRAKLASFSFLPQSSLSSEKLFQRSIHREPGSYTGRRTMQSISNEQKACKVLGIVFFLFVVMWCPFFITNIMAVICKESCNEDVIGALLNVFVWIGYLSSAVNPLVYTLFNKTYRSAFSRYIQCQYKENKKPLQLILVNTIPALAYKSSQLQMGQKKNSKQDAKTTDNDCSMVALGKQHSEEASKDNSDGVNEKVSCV
Experimental: as §2
CHO-K1 cells stably transfected with a plasmid encoding the human serotonin 5-HT2A receptor were used to prepare membranes in modified Tris-HCl pH 7.7 buffer using standard techniques. […] Non-specific binding was estimated in the presence of 1 μM mianserin. […] See Bonhaus, D. W. et al. “The pharmacology and distribution of human 5-hydroxytryptamine2B (5-HT2B) receptor gene products: comparison with 5-HT2A and 5-HT2C receptors” Brit. J. Pharmacol. 115: 622–628, 1995; and Saucier, C and Albert, P. R. “Identification of an endogenous 5-hydroxytryptamine2A receptor in NIH-3T3 cells: agonist-induced down-regulation involves decreases in receptor RNA and number” J. Neurochem. 68: 1998–2011, 1997.
as §1

[4] = biological target: T4, human serotonin 5-HT2C receptor (Homo sapiens, UniProt P28335); assay: Radioligand binding assay, human 5-HT2C receptors ([3H]Mesulergine)
T4 construct: expressed in transfected cells; host or cells: CHO-K1
T4 sequence (P28335 33-458): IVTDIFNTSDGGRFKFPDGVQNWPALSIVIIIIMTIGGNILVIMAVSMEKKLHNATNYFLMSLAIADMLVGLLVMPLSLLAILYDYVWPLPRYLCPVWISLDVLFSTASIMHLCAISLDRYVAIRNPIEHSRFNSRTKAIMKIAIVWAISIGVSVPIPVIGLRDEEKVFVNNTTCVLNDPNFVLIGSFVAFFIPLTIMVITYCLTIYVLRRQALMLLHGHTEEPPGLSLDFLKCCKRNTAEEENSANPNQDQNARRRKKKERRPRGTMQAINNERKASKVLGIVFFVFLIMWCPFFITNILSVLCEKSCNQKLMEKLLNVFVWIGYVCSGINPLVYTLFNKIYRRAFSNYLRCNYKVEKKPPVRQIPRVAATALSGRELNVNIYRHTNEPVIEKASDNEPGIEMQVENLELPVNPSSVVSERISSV
Experimental: as §2
CHO-K1 cells stably transfected with a plasmid encoding the human serotonin 5-HT2C receptor were used to prepare membranes in modified Tris-HCl pH 7.7 buffer using standard techniques. […] Non-specific binding was estimated in the presence of 1 μM mianserin. […] See Wolf, W. A. and Schutz, J. S. “The serotonin 5-HT2C receptor is a prominent serotonin receptor in basal ganglia: evidence from functional studies on serotonin-mediated phosphoinositide hydrolysis” J. Neurochem. 69: 1449–1458, 1997.
as §1

[5] = biological target: T5, human serotonin 5-HT2B receptor (Homo sapiens, UniProt P41595); assay: Radioligand binding assay, human 5-HT2B receptors ([3H]LSD); details: human 5-HT2b; Example 16 table; read-out: IC50 (nM) 5-HT2b
T5 construct: expressed in transfected cells; host or cells: CHO-K1
T5 sequence (P41595 whole entry): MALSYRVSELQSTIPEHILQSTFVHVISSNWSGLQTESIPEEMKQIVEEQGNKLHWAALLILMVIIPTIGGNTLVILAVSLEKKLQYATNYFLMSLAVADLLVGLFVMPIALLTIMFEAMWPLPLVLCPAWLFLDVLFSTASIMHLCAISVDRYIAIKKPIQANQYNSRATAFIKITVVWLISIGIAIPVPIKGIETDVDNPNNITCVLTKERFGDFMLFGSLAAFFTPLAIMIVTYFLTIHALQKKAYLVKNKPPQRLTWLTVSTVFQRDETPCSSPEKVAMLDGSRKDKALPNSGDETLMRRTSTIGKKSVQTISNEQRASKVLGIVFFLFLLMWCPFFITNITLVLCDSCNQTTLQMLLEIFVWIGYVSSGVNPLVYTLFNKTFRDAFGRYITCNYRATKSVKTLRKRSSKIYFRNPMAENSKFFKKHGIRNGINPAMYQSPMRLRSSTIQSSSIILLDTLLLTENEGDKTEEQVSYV
Experimental: This assay measures binding of [^3H]LSD to human serotonin 5-HT2B receptors. CHO-K1 cells stably transfected with a plasmid encoding the human serotonin 5-HT2B receptor were used to prepare membranes in modified Tris-HCl pH 7.4 buffer using standard techniques. […] Non-specific binding was estimated in the presence of 10 μM serotonin. Membranes were filtered and washed 3 times and the filters were counted to determine [^3H]LSD specifically bound. See Bonhaus, D. W. et al. “The pharmacology and distribution of human 5-hydroxytryptamine2B (5-HT2B) receptor gene products: comparison with 5-HT2A and 5-HT2C receptors” Brit.
The human 5-HT2b screen was conducted according to Wolf, W. A. et al. J. Neurochem.

[6] = human, Example 100 table, read-out: IC50 (nM) D3
[7] = human, Example 100 table, read-out: IC50 (nM) 5-HT2A
[8] = human, Example 100 table, read-out: IC50 (nM) 5-HT2C

T1 sequence (P35462 whole entry): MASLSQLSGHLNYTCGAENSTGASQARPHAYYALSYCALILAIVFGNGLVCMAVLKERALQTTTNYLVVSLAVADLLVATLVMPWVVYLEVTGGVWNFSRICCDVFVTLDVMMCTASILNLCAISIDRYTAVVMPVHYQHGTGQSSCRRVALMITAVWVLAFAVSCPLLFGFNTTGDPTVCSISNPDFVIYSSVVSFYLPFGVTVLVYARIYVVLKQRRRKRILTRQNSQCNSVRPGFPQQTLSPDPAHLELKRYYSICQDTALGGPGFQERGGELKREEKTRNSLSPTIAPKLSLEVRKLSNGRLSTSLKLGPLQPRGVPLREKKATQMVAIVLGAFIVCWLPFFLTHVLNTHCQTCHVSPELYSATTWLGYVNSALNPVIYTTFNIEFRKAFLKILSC

Structure (SMILES)	IC50 [1, 6] [nM]	IC50 ([2]; human, Example 100 table) [nM]	IC50 [3, 7] [nM]	IC50 [4, 8] [nM]	other results
CCN1CCCC1CNc1nc(C2(c3ccccc3F)CCCCC2)cs1 (racemic) [Compound 131, (1-ethyl-pyrrolidin-2-ylmethyl)-{4-[1-(2-fluorophenyl)-cyclohexyl]-thiazol-2-yl}-amine]	< 1000	< 1000			
CN(C)C1CCN(c2nc(C3(c4ccccc4F)CCCCC3)cs2)C1 (racemic) [Compound 136, (1-{4-[1-(2-Fluoro-phenyl)-cyclohexyl]-thiazol-2-yl}-pyrrolidin-3-yl)-dimethylamine]	> 1000	> 1000			
CN1CCCC1CCNc1nc(C2(c3ccccc3F)CCCCC2)cs1 (single isomer, unassigned) [Compound 129, {4-[1-(2-fluorophenyl)-cyclohexyl]-thiazol-2-yl}-[2-(1-methyl-pyrrolidin-2-yl)-ethyl]-amine]	< 1000	< 1000	< 1000	< 1000	
Clc1ccc(C2(c3csc(NCCCN4CCOCC4)n3)CCC2)cc1 [Compound 21, {4-[1-(4-chlorophenyl)-cyclobutyl]thiazol-2-yl}-(3-morpholin-4-yl-propyl)amine]					IC50 [5]: < 1000 nM; IC50 ([1]; Example 20 table, read-out: IC50 (nM) Against Human D3 Receptors): > 1000 nM; IC50 ([3]; human 5-HT2a, Example 16 table, read-out: IC50 (nM) 5-HT2a): > 1000 nM; IC50 ([4]; human 5-HT2c, Example 16 table, read-out: IC50 (nM) 5-HT2c): < 1000 nM; IC50 ([2]; human 5-HT6, Example 16 table): > 1000 nM
Clc1ccc(C2(c3csc(NCCCN4CCOCC4)n3)CCCCC2)cc1 [Compound 94, {4-[1-(4-chloro-phenyl)-cyclohexyl]-thiazol-2-yl}-(3-morpholin-4-yl-propyl)-amine]	> 1000	< 1000	> 1000	< 1000	
CN1CCCC1CCNc1nc(C2(c3ccc(Cl)cc3)CCCCC2)cs1 (stereo not drawn) [Compound 95, {4-[1-(4-chloro-phenyl)-cyclohexyl]-thiazol-2-yl}-[2-(1-methyl-pyrrolidin-2-yl)-ethyl] amine]	< 1000	< 1000	< 1000	< 1000	
Fc1ccccc1C1(c2csc(NCCCN3CCOCC3)n2)CCCC1 [Compound 96]	> 1000	> 1000	> 1000	> 1000	
COc1ccccc1N1CCN(c2nc(C3(c4ccccc4F)CCCCC3)cs2)CC1 [Compound 97]	> 1000	> 1000	> 1000	> 1000	
CCN(CC)CCCNc1nc(C2(c3cccc(Cl)c3)CCOCC2)cs1 [Compound 98, N-{4-[4-(3-chloro-phenyl)-tetrahydro-pyran-4yl]-thiazol-2-yl}-N,N-diethyl-propane-1,3-diamine]	> 1000	> 1000			
Clc1ccc(C2(c3csc(NCCCN4CCOCC4)n3)CCCC2)cc1 [Compound 100]	> 1000	< 1000	> 1000	< 1000	
Clc1ccc(C2(c3csc(NCCN4CCCCC4)n3)CCCC2)cc1 [Compound 101]	< 1000	< 1000			
Clc1ccc(C2(c3csc(NCCN4CCOCC4)n3)CCCCC2)cc1 [Compound 102]	> 1000	< 1000			
CCN(CC)CCCNc1nc(C2(c3ccc(Cl)cc3)CCCCC2)cs1 [Compound 103]	< 1000	< 1000	< 1000	< 1000	
CN1CCCN(c2nc(C3(c4ccc(Cl)cc4)CCCC3)cs2)CC1 [Compound 105]	< 100	< 1000	< 1000	< 1000	
CNC1CCN(c2nc(C3(c4ccc(Cl)cc4)CCCCC3)cs2)C1 (stereo not drawn) [Compound 106]	> 1000	> 1000	> 1000	> 1000	
Clc1ccc(C2(c3csc(N4CCC(N5CCCCC5)CC4)n3)CCCCC2)cc1 [Compound 107]	< 1000	> 1000			
CN1CCC(N(C)c2nc(C3(c4ccc(Cl)cc4)CCCCC3)cs2)C1 (stereo not drawn) [Compound 108]	< 1000	< 100			
Clc1ccc(C2(c3csc(N4CCNCC4)n3)CCCC2)cc1 [Compound 109]	< 1000	< 100			
Fc1ccccc1C1(c2csc(N3CCN(Cc4ccc(Cl)cc4)CC3)n2)CCCC1 [Compound 110]	> 1000	> 1000			
CCN(CC)CCCNc1nc(C2(c3ccccc3F)CCCC2)cs1 [Compound 114]	> 1000	> 1000			
CN1CCCN(c2nc(C3(c4ccc(Cl)cc4)CCCCC3)cs2)CC1 [Compound 115]	< 1000	< 1000			
CN(C)C1CCN(c2nc(C3(c4ccc(Cl)cc4)CCCCC3)cs2)C1 (stereo not drawn) [Compound 117]	> 1000	> 1000			
CN(C)C1CCN(c2nc(C3(c4ccc(Cl)cc4)CCCC3)cs2)C1 (stereo not drawn) [Compound 118]	> 1000	< 1000			
Clc1ccc(C2(c3csc(NC4CCN(Cc5ccccc5)C4)n3)CCCCC2)cc1 (stereo not drawn) [Compound 119]	> 1000	> 1000			
Clc1ccc(C2(c3csc(N4CCOCC4)n3)CCOCC2)cc1 [Compound 124, 4-{4-[4-(4-Chloro-phenyl)-tetrahydro-pyran-4-yl]-thiazol-2-yl}-morpholine]	> 1000	> 1000	> 1000	> 1000	
Fc1ccccc1C1(c2csc(N3CCNCC3)n2)CCCCC1 [Compound 127, 1-{4-[1-(2-Fluorophenyl)-cyclohexyl]-thiazol-2-yl}-piperazine]	< 1000	< 100			

Source: patent publication US7087623B2, “Thiazole and other heterocyclic ligands for mammalian dopamine, muscarinic and serotonin receptors and transporters, and methods of use thereof” (Sepracor Inc., priority 2001, dated 2006)
